Here are results for 17 molecules from patent US10336707B2, “Heterocyclic derivatives modulating activity of certain protein kinases” (EUDENDRON S.R.L., priority 2014, dated 2019).

Assay [1] addresses T1, BaF3 cell line transfected with the oncogenic fusion protein NPM-ALK and expressing the mutation L1196M (Homo sapiens, UniProt Q9UM73, L1196M, cells depend on it).
T1 construct: fused on or other part: P06748 (Nucleophosmin)
The experiment in a line: Tritiated thymidine uptake cell proliferation assay, BaF3 NPM-ALK L1196M. Type of assay: cell-based, murine. As to conditions: for GI50: averaged IC50 values of cell proliferation inhibition, class letters, read-out: IC50 BaF3 NPM-ALK L1196M cells; for % Inhibition BaF3 NPM-ALK L1196M cells: percentage of inhibition of cell proliferation at 200 nM. As to the method: (§1) Method: Tritiated Thymidine Uptake Cell Proliferation Assay
(§2) The following procedure was used with parent untransformed BaF3 cells, BaF3 cells transformed with the oncogenic fusion protein NPM/ALK, NPM/ALK positive SUDHL-1 cells, NPM/ALK positive SUPM2, ALK-negative HL60 cells, NPM/ALK positive KARPAS-299 cells. The parent untransformed BaF3 cells or Alk-negative HL60 cells are used as controls. Cells were seeded in U-bottomed 96-well plates at 10000 cells/well in a volume of 100 μl in supplemented medium. In the case of the parent untransformed BaF3 cells, the medium was supplemented with IL-3. Serial dilutions of inhibitors were added to the appropriate wells and volumes adjusted to 200 μl. Controls were treated with the equivalent volume of vehicle, DMSO, alone. Plates were incubated at 37° C. for 72 h. 3[H]-thymidine (1 μCi/well) was added for the last 16 h of incubation. Cells were harvested on to paper filters and 3[H]-thymidine incorporation was measured using a scintillation counter (1430 MicroBeta, Wallac, Turku, Finland). The 50% inhibitory concentration (IC50) was defined as the concentration of inhibitor, expressed in nanomolar units, that gave a 50% decrease in 3[H]-thymidine uptake compared with controls.
In Table 2 are listed results for selected examples of compounds of the invention, reported as percentage of inhibition of cell proliferation at 200 nM, obtained from cellular assays in BaF3 cell line transfected with the oncogenic fusion protein NPM-ALK and expressing the mutation L1196M.
In Table 3 are listed averaged IC50 values of cell proliferation inhibition for selected examples of compounds of the present invention, obtained from cellular assays in BaF3 cell line transfected with the oncogenic fusion protein NPM-ALK and expressing the mutation L1196M. The letter “A” designates an IC50 value between 1 nM and 50 nM, the letter “B” designates an IC50 value between 50 nM and 100 nM, the letter “C” designates an IC50 value between 100 and 500 nM.

In assay [2] the test system is Karpas 299 lymphoma cell line positive for the oncogenic fusion protein NPM-ALK. The experiment in a line: Tritiated thymidine uptake cell proliferation assay, Karpas 299. Type of assay: cell-based. As to conditions: Homo sapiens, KARPAS-299; percentage of inhibition of cell proliferation at 200 nM; read-out: % Inhibition Karpas 299 cells. As to the method: as §1, §2
In Table 1 are listed results for selected examples of compounds of the invention, reported as percentage of inhibition of cell proliferation at 200 nM, obtained from cellular assays in Karpas 299 lymphoma cell line positive for the oncogenic fusion protein NPM-ALK.

T1 sequence (Q9UM73 whole entry L1196M, the tested form may be a part): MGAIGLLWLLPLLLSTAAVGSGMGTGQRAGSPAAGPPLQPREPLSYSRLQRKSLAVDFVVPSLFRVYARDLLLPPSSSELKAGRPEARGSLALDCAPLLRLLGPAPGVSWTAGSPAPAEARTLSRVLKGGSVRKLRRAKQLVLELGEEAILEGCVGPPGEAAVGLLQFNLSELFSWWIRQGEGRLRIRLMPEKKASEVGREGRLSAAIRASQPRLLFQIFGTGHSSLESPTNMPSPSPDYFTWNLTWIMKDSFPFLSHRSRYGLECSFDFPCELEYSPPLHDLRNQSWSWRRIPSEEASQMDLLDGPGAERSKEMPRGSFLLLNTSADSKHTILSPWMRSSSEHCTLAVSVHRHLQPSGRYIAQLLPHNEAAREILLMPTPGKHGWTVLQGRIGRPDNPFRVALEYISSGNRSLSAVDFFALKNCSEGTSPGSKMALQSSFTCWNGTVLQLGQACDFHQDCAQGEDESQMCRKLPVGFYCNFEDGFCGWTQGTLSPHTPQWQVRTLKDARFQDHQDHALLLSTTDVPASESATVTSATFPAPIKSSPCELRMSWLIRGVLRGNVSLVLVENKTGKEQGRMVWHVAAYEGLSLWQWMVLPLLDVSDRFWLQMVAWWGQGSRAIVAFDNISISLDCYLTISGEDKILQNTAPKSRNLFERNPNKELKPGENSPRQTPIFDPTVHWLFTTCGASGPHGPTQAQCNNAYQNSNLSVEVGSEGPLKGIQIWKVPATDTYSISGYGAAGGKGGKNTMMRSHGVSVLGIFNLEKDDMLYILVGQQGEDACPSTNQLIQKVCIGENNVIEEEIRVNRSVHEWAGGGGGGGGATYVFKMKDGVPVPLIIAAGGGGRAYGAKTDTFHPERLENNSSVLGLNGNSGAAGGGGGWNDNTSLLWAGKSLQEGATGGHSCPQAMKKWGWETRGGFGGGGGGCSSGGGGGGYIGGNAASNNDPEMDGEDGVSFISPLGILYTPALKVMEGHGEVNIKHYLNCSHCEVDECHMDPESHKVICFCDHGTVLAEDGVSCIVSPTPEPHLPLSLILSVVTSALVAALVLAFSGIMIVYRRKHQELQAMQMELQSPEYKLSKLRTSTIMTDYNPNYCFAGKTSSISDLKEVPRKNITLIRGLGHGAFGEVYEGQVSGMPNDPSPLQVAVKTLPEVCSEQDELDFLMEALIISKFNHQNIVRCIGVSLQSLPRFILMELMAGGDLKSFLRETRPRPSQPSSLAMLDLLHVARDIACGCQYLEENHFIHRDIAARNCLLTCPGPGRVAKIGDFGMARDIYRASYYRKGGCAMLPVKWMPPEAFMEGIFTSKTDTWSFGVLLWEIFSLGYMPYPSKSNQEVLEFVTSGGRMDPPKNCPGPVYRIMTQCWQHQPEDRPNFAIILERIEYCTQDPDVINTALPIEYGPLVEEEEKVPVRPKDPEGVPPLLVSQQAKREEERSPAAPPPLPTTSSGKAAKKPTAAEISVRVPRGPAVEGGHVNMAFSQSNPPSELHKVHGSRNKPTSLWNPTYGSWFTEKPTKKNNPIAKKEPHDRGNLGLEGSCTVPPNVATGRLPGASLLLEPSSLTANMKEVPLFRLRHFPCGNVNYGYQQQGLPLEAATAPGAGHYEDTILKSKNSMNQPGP

Take `CN1CCN(c2ccc(C(=O)Nc3n[nH]c4cc(-c5cccc(O)c5)c(Cc5cc(F)cc(F)c5)cc34)c(NC3CCOCC3)c2)CC1` [Example 4, N-[5-[(3,5-difluorophenyl)methyl]-6-(3-hydroxyphenyl)-1H-indazol-3-yl]-4-(4-methylpiperazin-1-yl)-2-(tetrahydropyran-4-ylamino)benzamide]: in assay [1], the GI50 is 1 to 50 nM and the “% Inhibition BaF3 NPM-ALK L1196M cells” value is on record as 99%. For the same molecule, in assay [2], the inhibition at 0.2 µM came to 99%.

As for `Cc1cc(O)ccc1-c1cc2[nH]nc(NC(=O)c3ccc(N4CCN(C)CC4)cc3NC3CCOCC3)c2cc1Cc1cc(F)cc(F)c1` [Example 5, N-[5-[(3,5-difluorophenyl)methyl]-6-(4-hydroxy-2-methyl-phenyl)-1H-indazol-3-yl]-4-(4-methylpiperazin-1-yl)-2-(tetrahydropyran-4-ylamino)benzamide], in assay [1], the GI50 was 1 to 50 nM and the “% Inhibition BaF3 NPM-ALK L1196M cells” value is 100%. In addition, the inhibition at 0.2 µM in assay [2] is 100%.

As to `CN1CCN(c2ccc(C(=O)Nc3n[nH]c4cc(-c5ccc(O)cc5F)c(Cc5cc(F)cc(F)c5)cc34)c(NC3CCOCC3)c2)CC1` [Example 6, N-[5-[(3,5-difluorophenyl)methyl]-6-(2-fluoro-4-hydroxy-phenyl)-1H-indazol-3-yl]-4-(4-methylpiperazin-1-yl)-2-(tetrahydropyran-4-ylamino)benzamide], in assay [1], the GI50 fell in the range of 1 to 50 nM and the “% Inhibition BaF3 NPM-ALK L1196M cells” value was determined as 100%. In addition, the inhibition at 0.2 µM in assay [2] was 100%.

Take `Cc1ccc(O)cc1-c1cc2[nH]nc(NC(=O)c3ccc(N4CCN(C)CC4)cc3NC3CCOCC3)c2cc1Cc1cc(F)cc(F)c1` [Example 7, N-[5-[(3,5-difluorophenyl)methyl]-6-(5-hydroxy-2-methyl-phenyl)-1H-indazol-3-yl]-4-(4-methylpiperazin-1-yl)-2-(tetrahydropyran-4-ylamino)benzamide]: in assay [1], the GI50 lay within 1 to 50 nM and the “% Inhibition BaF3 NPM-ALK L1196M cells” value is 100%. Moreover, in assay [2], the inhibition at 0.2 µM was determined as 93%.

With `CN1CCN(c2ccc(C(=O)Nc3n[nH]c4cc(-c5cc(O)ccc5F)c(Cc5cc(F)cc(F)c5)cc34)c(NC3CCOCC3)c2)CC1` [Example 8, N-[5-[(3,5-difluorophenyl)methyl]-6-(2-fluoro-5-hydroxy-phenyl)-1H-indazol-3-yl]-4-(4-methylpiperazin-1-yl)-2-(tetrahydropyran-4-ylamino)benzamide], in assay [1], the GI50 lay within 1 to 50 nM and the “% Inhibition BaF3 NPM-ALK L1196M cells” value came out at 99%. Moreover, the inhibition at 0.2 µM in assay [2] was 99%.

Consider `CN1CCN(c2ccc(C(=O)Nc3n[nH]c4cc(-c5ccc(O)cc5C(F)(F)F)c(Cc5cc(F)cc(F)c5)cc34)c(NC3CCOCC3)c2)CC1` [Example 9, N-[5-[(3,5-difluorophenyl)methyl]-6-[4-hydroxy-2-(trifluoromethyl)phenyl]-1H-indazol-3-yl]-4-(4-methylpiperazin-1-yl)-2-(tetrahydropyran-4-ylamino)benzamide], for which, in assay [1], the GI50 lay in the range of 1 to 50 nM and the “% Inhibition BaF3 NPM-ALK L1196M cells” value worked out at 99%. The inhibition at 0.2 µM in assay [2] was determined as 100%.

Take `CN1CCN(c2ccc(C(=O)Nc3n[nH]c4cc(-c5cnc(N)nc5)c(Cc5cc(F)cc(F)c5)cc34)c(NC3CCOCC3)c2)CC1` [Example 10, N-[6-(2-aminopyrimidin-5-yl)-5-[(3,5-difluorophenyl)methyl]-1H-indazol-3-yl]-4-(4-methylpiperazin-1-yl)-2-(tetrahydropyran-4-ylamino)benzamide]: the “% Inhibition BaF3 NPM-ALK L1196M cells” value in assay [1] was determined as 61%. In assay [2], the inhibition at 0.2 µM is 93%.

Take `CN1CCN(c2ccc(C(=O)Nc3n[nH]c4cc(-c5ccc(N)nc5)c(Cc5cc(F)cc(F)c5)cc34)c(NC3CCOCC3)c2)CC1` [Example 11, N-[6-(6-amino-3-pyridyl)-5-[(3,5-difluorophenyl)methyl]-1H-indazol-3-yl]-4-(4-methylpiperazin-1-yl)-2-(tetrahydropyran-4-ylamino)benzamide]: in assay [1], the GI50 fell in the range of 50 to 100 nM and the “% Inhibition BaF3 NPM-ALK L1196M cells” value is 88%. Also, the inhibition at 0.2 µM in assay [2] was found to be 95%.

With `CN1CCN(c2ccc(C(=O)Nc3n[nH]c4cc(-c5cncc(N)c5)c(Cc5cc(F)cc(F)c5)cc34)c(NC3CCOCC3)c2)CC1` [Example 12, N-[6-(5-amino-3-pyridyl)-5-[(3,5-difluorophenyl)methyl]-1H-indazol-3-yl]-4-(4-methylpiperazin-1-yl)-2-(tetrahydropyran-4-ylamino)benzamide], in assay [1], the GI50 fell in the range of 50 to 100 nM and the “% Inhibition BaF3 NPM-ALK L1196M cells” value is 99%. Besides, the inhibition at 0.2 µM in assay [2] was 100%.

With `CN1CCN(c2ccc(C(=O)Nc3n[nH]c4cc(-c5cccc(CO)c5)c(Cc5cc(F)cc(F)c5)cc34)c(NC3CCOCC3)c2)CC1` [Example 13, N-[5-[(3,5-difluorophenyl)methyl]-6-[3-(hydroxymethyl)phenyl]-1H-indazol-3-yl]-4-(4-methylpiperazin-1-yl)-2-(tetrahydropyran-4-ylamino)benzamide], in assay [1], the GI50 lay within 100 to 500 nM and the “% Inhibition BaF3 NPM-ALK L1196M cells” value came to 97%.

In the case of `Cc1cc(N)ncc1-c1cc2[nH]nc(NC(=O)c3ccc(N4CCN(C)CC4)cc3NC3CCOCC3)c2cc1Cc1cc(F)cc(F)c1` [Example 14, N-[6-(6-amino-4-methyl-3-pyridyl)-5-[(3,5-difluorophenyl)methyl]-1H-indazol-3-yl]-4-(4-methylpiperazin-1-yl)-2-(tetrahydropyran-4-ylamino)benzamide], the “% Inhibition BaF3 NPM-ALK L1196M cells” value in assay [1] is recorded as 66%. Also, the inhibition at 0.2 µM in assay [2] is 62%.

Consider `CN1CCN(c2ccc(C(=O)Nc3n[nH]c4cc(-c5cnn(C(C)(C)CO)c5)c(Cc5cc(F)cc(F)c5)cc34)c(NC3CCOCC3)c2)CC1` [Example 15, N-[5-[(3,5-difluorophenyl)methyl]-6-[1-(2-hydroxy-1,1-dimethyl-ethyl)pyrazol-4-yl]-1H-indazol-3-yl]-4-(4-methylpiperazin-1-yl)-2-(tetrahydropyran-4-ylamino)benzamide], for which, in assay [1], the GI50 fell in the range of 50 to 100 nM and the “% Inhibition BaF3 NPM-ALK L1196M cells” value stood at 100%. In addition, in assay [2], the inhibition at 0.2 µM was determined as 100%.

Regarding `CN1CCN(c2ccc(C(=O)Nc3n[nH]c4cc(-c5cc[nH]c(=O)c5)c(Cc5cc(F)cc(F)c5)cc34)c(NC3CCOCC3)c2)CC1` [Example 16, N-[5-[(3,5-difluorophenyl)methyl]-6-(2-oxo-1H-pyridin-4-yl)-1H-indazol-3-yl]-4-(4-methylpiperazin-1-yl)-2-(tetrahydropyran-4-ylamino)benzamide], the inhibition at 0.2 µM in assay [2] amounted to 88%.

Consider `CN1CCN(c2ccc(C(=O)Nc3n[nH]c4cc(-c5cn[nH]c5)c(Cc5cc(F)cc(F)c5)cc34)c(NC3CCOCC3)c2)CC1` [Example 18, N-[5-[(3,5-difluorophenyl)methyl]-6-(1H-pyrazol-4-yl)-1H-indazol-3-yl]-4-(4-methylpiperazin-1-yl)-2-(tetrahydropyran-4-ylamino)benzamide], for which, in assay [1], the GI50 lay within 100 to 500 nM and the “% Inhibition BaF3 NPM-ALK L1196M cells” value is 97%. Moreover, in assay [2], the inhibition at 0.2 µM is 100%.

Take `CN1CCN(c2ccc(C(=O)Nc3n[nH]c4cc(-c5cc(O)cc(F)c5)c(Cc5cc(F)cc(F)c5)cc34)c(NC3CCOCC3)c2)CC1` [Example 19, N-[5-[(3,5-difluorophenyl)methyl]-6-(3-fluoro-5-hydroxy-phenyl)-1H-indazol-3-yl]-4-(4-methylpiperazin-1-yl)-2-(tetrahydropyran-4-ylamino)benzamide]: in assay [1], the GI50 lay within 50 to 100 nM and the “% Inhibition BaF3 NPM-ALK L1196M cells” value is recorded as 100%. In addition, the inhibition at 0.2 µM in assay [2] was 99%.

For `CNC(=O)c1ccc(-c2cc3[nH]nc(NC(=O)c4ccc(N5CCN(C)CC5)cc4NC4CCOCC4)c3cc2Cc2cc(F)cc(F)c2)cc1` [Example 20, N-[5-[(3,5-difluorophenyl)methyl]-6-[4-(methylcarbamoyl)phenyl]-1H-indazol-3-yl]-4-(4-methylpiperazin-1-yl)-2-(tetrahydropyran-4-ylamino)benzamide], the “% Inhibition BaF3 NPM-ALK L1196M cells” value in assay [1] is listed as 57%.

For the molecule `COc1cccc(-c2cc3[nH]nc(NC(=O)c4ccc(N5CCN(C)CC5)cc4NC4CCOCC4)c3cc2Cc2cc(F)cc(F)c2)c1` [Example 24, N-[5-[(3,5-difluorophenyl)methyl]-6-(3-methoxyphenyl)-1H-indazol-3-yl]-4-(4-methylpiperazin-1-yl)-2-(tetrahydropyran-4-ylamino)benzamide], the “% Inhibition BaF3 NPM-ALK L1196M cells” value in assay [1] turned out to be 52%.

One may read the inhibition as how much of the control response was suppressed.
